Positions of bridges follow the written chain, without caps; N, C: chain ends. Non-standard residues stand in square brackets, D forms with d. No end group written: not given here. IRDye‑680LT = infrared dye IRDye-680LT, conjugated via NHS ester
Columns and labels:
GC-C receptor = GC-C receptor (Homo sapiens, UniProt P25092); conditions: cited from earlier work
[1] = tested on: cGMP production in T84 cells; test: T84 cGMP bioassay; assay type: cell-based, Human; conditions: FIG. 6
[2] = target: T1, GC-C binding sites on T84 cells (Homo sapiens, UniProt P25092); test: Binding of IR680-SP-333 probe to suspension of T84 cells; conditions: 0.5 μM probe, 4° C. for 30 mins, FIG. 4
T1 construct: endogenous in cells; host or cells: T84 human colon carcinoma cells
Method: Next, we performed binding of probe to suspension of T84 cells. In this set of experiments, cells cultured for 9 days in T75 flasks were harvested by scraping and suspended in pre-chilled binding media. Different densities of cells were incubated with […] IR680-SP-333 (final concentration 0.5 μM) in pre-chilled binding buffer at 4° C. for 30 mins. The IR680-SP-333 was diluted with unlabeled SP-333 to adjust the final concentration of probe 0.5 μM. This dilution was necessary to saturate the available GC-C binding sites on 40,000 cells.

[3] = tested on: colon polyps in Apc^+/Min-FCCC mice; test: In vivo gavage of probe, imaging of excised colon and histopathology
Method: Following the ex-vivo binding studies, an experiment was performed to assess the ability of the probe to remain intact as it passed through the GI tract and bind to colonic lesions. In this in vivo experiment, Apc^+/Min-FCCC mice (10-12 wks of age) were subjected to a colonoscopic examination prior to probe administration, according to a protocol established previously (Hensley, Gastrointestinal Endoscopy group). Mice with confirmed colon polyps were randomized to receive IR680-SP-333 at 0.5 or 0.05 mg/kg body weight by gavage. Prior to probe administration, mice were fasted overnight and provided Pedialyte ad libitum for bowel cleansing. Mice were gavaged with IR680-SP-333 and euthanized at 30, 60, 90 and 120 min post treatment. At the time of euthanasia, the colon was excised, opened its entire length and rinsed with saline. Each colon was then placed on a plastic ruler and imaged in an IVIS Spectrum system using the settings described above for the ex-vivo experiments. Immediately following image acquisition, the entire colon was placed intact on a plastic ruler in 10% normal buffered formalin and areas positive and negative for probe signal were collected for histopathological evaluation. […] Evaluation of additional doses of IR680-SP-333 probe (0.0158 and 0.158 mg/kg body weight) confirmed that gavaging mice with IR680-SP-333 at 0.05 mg/kg body weight and imaging 30 min post treatment yielded the greatest differential in signal between the non-neoplastic and neoplastic colonic mucosa.
Colon tissues with strong signal (tumor) and corresponding background signal (nonneoplastic control) were processed for histopathology evaluation and reviewed bin a blinded manner. […] This heterogeneity made it impossible to standardize the epi-fluorescence scale and classify positive and negative signals based solely on the epi-fluorescence value. […] In FIG. 12 (mouse ID 12201), strong signal is localized to a hyperplastic polyp (HP); an area of high proliferation; providing additional support for the lack of correlation between the intensity of the probe signal and size/type of colonic lesion. […] The probe IR-680-SP-333 may also be useful in detection of colorectal metastasis in liver and other organs.

[4] = target: T2, GC-C expressed on T84 cells (Homo sapiens, UniProt P25092); test: Binding of IR680-SP-333 probe to T84 cell monolayer; conditions: 4° C. for 1 hour, FIG. 3
T2 construct: endogenous in cells; host or cells: T84 human colon carcinoma cells
Method: Experiments were performed to establish binding conditions to reduce background and to enhance specific binding. These experiments concluded that the age of T84 monolayer should be between 7-9 days after seeding to allow maximum expression of GC-C on the cell surface. Next, we established the optimal binding buffer, incubation time to allow binding of probe to T84 cells and temperature of binding incubation to minimize endocytosis. The optimal conditions for specific binding of probe to T84 cells are briefly described here. Human T84 cells were grown to confluence in 96 black clear bottom plates. Media was aspirated and the plate was blocked with 200 ul/well of blocking buffer (DMEM/F12+150 mM NaCl+20 mM Sodium phosphate dibasic, pH was adjusted to 6.0 with 1N HCl) for 2 hours in cell culture incubator at 37° C.

[5] = tested on: colonic adenomas in Apc^+/Min-FCCC mice; test: Ex-vivo imaging of excised colons incubated with probe (IVIS Spectrum); conditions: 0.1 μM probe; for signal / ability to detect polyps in older mice: 4 and 6 month old mice
Method: Ex-vivo and in vivo studies have been performed to evaluate the specificity of the IR680-SP-333 probe for colonic adenomas in Apc^+/Min-FCCC mice. IR680-SP-333 was prepared in DMEM/F-12 media containing 20 mM sodium phosphate buffer and 3% BSA, pH6; the same media used for in vitro experiments. Based on data from an initial pilot study, incubation of tissue with 0.1 μM IR680-SP-333 for 30 min at 37° C. was selected as the optimal condition for ex-vivo studies. Epifluorescence images were acquired as follows: excitation wavelength=640 nm, detection wavelength=700 nm, exposure time=auto-3 min, F-stop=1, binning=1 (“small” setting), field of view=0.3 cm (setting “C”). […] To eliminate the contribution of the age of mouse to the observed heterogeneity in probe binding, an in depth imaging study was performed in mice of various ages (2, 3, 4, 5 and 6 months). In this ex-vivo study, mice were euthanized and colons excised, opened longitudinally, and washed with PBS. Colon tissues were incubated with 0.1 μM IR680-SP-333 at 37° C. for 30 min. After incubation, the tissues were washed with PBS (4 times) and imaged in the IVIS Spectrum, using the settings described above. Careful review of the resulting images lead to three major conclusions: 1) the binding of the IR680-SP-333 probe to colorectal polyps is size dependent. […] 2) because the signal varied with polyp size, binding was enhanced in mice 2-3 months of age where the majority of colorectal polyps were smaller (≤3 mm in diameter) (FIG. 7). As the mice aged, the colorectal polyps increased in size and the ability of probe to detect the polyps decreased (FIG. 8). […] Because the incidence of colorectal polyps is higher in mice 3 months (70%) vs. 2 months (45%) of age, a decision was made to use mice 10-12 weeks of age for all subsequent in vivo IR680-SP-333 analyses to minimize the number of animal that needed to be screened for tumors. 3) signal of the IR680-SP-333 probe was high at the proximal and distal ends of the colon even in the absence of polyps. Similar nonspecific binding of unknown origin has been observed in previous experiments with independent probes at these same extreme regions.

T2 sequence (P25092 24-1073): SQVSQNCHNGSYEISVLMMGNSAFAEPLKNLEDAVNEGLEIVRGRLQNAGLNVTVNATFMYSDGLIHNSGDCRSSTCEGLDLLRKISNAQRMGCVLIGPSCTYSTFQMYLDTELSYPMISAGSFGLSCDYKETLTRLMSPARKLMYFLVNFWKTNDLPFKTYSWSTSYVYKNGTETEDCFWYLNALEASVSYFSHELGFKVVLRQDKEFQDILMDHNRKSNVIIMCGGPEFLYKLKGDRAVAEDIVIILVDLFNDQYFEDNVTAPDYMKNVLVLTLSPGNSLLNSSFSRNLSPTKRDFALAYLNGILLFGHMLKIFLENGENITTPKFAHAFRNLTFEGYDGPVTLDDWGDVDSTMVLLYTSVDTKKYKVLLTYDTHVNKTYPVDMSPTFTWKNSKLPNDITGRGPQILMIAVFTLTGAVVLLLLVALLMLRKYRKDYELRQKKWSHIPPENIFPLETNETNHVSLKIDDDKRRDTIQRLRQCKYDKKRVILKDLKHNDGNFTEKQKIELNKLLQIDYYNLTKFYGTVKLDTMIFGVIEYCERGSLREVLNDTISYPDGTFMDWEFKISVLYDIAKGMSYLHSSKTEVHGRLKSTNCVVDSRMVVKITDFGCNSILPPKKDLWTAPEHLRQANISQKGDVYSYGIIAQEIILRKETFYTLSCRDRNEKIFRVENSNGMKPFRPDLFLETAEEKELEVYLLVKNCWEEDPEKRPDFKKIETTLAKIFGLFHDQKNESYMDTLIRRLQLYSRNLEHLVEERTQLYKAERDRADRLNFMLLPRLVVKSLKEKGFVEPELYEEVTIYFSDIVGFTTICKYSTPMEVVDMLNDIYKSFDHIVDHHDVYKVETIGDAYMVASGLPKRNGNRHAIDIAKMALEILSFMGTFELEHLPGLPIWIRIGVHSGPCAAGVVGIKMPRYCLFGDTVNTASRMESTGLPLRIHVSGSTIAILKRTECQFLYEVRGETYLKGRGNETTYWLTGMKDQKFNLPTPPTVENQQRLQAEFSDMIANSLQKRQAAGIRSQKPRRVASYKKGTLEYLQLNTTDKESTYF
GC-C receptor, sequence (P25092 24-1073): as above
T1 sequence (P25092 24-1073): as above

Asn^1-Asp^2-Asp^3-Cys^4-Glu^5-Leu^6-Cys^7-Val^8-Asn^9-Val^10-Ala^11-Cys^12-Thr^13-Gly^14-Cys^15-Leu^16 (NDDCELCVNVACTGCL; disulfide 4-12, 7-15) [Uroguanylin, a physiological ligand of GC-C, a 16 amino acid peptide with two disulfide bonds]
affinity for the GC-C receptor (GC-C receptor): nanomolar affinity

IR680-SP-333: SP-333 labeled at the amine group with IRDye-680LT NHS ester; bioactive infrared fluorescence probe ({IRDye‑680LT}-[dN]DECELCVNVACTGC[dL]; disulfide 4-12, 7-15)
ability to stimulate cGMP production in T84 cells [1]: active
level of cGMP production compared to unconjugated SP-333 [1]: slightly lower level
binding of probe to cell suspension in the presence of 100-fold excess of SP-333 [2]: abolished
differential between signal of colorectal polyps and background of adjacent normal colonic mucosa ([3]; gavage 0.05 mg/kg body weight, imaged 30 min post treatment, FIG. 9A): best differential
nonspecific signal at proximal and distal ends of colon ([3]; gavage 0.5 mg/kg body weight, FIG. 9B): increased significantly
differential between tumor and normal tissue at higher dose ([3]; gavage 0.5 mg/kg body weight, FIG. 9B, 0.5 mg/kg): failed to improve the difference in signal between neoplastic and nonneoplastic mucosa significantly
differential between tumor and normal tissue at higher dose ([3]; gavage 0.5 mg/kg body weight, FIG. 9B, listed as SP-333-IR680, 0.5 mg/kg): failed to improve the differential between tumor and normal tissue
nonspecific binding at longer interval between dosing and imaging ([3]; gavage, ≥90 min between dosing and imaging, FIG. 9C): increase in nonspecific binding
correlation of probe signal intensity with tumor size or histological subtype ([3]; histopathology, blinded review): did not correlate with either tumor size or the histological subtype of lesion
probe signal in hyperplastic polyp (HP) ([3]; mouse ID 12201, FIG. 12): strong signal
probe signal in flat/indeterminate adenoma ([3]; mouse ID 12276, FIG. 11): weaker signal
probe signal in small gross lesion (1-mm in size) ([3]; mouse ID 12276, FIG. 11): very strong probe signal
probe signal in adenoma ([3]; mouse ID 12281, FIG. 10): intermediate signal intensity
probe signal in areas of hyperproliferation (HP) ([3]; mouse ID 12281, FIG. 10): strongest probe signal
probe signal in micro-adenoma compared to surrounding normal colonic mucosa ([3]; mouse ID 12281, FIG. 10): slight increase in signal
background signal in normal colonic mucosa ([3]; same dose and same post treatment time interval): varied between mice receiving the same treatment regimen
binding of probe in the presence of 100-fold excess of unlabeled SP-333 [4]: considerably reduced
binding of probe to T84 cells (fluorescence ex680, em715) [4]: specifically bound to GC-C expressed on T84 cells in a dose-dependent manner
signal at the proximal and distal ends of the colon in the absence of polyps ([5]; 30 min): high
signal / ability to detect polyps in older mice ([5]; 30 min, FIG. 8): decreased
signal / ability to detect polyps in older mice ([5]; 30 min, FIG. 8, listed as SP-333-IR680): weaker than that observed in younger animals
binding in mice 2-3 months of age ([5]; 30 min, polyps mostly ≤3 mm, FIG. 7): enhanced
binding to colorectal polyps versus surrounding normal colonic mucosa ([5]; 30 min at 37° C.): greater binding to colorectal polyps than to the surrounding normal colonic mucosa
binding to every colorectal polyp ([5]; 30 min at 37° C.): did not bind to every colorectal polyp
probe signal by polyp size ([5]; 30 min at 37° C., FIG. 7): higher in polyps ≤3 mm in diameter than in those with a diameter >4 mm
